Reference: patent US10071095B2, “1,2,4-triazolo [4,3-A] pyridine derivatives and their use for the treatment of neurological and psychiatric disorders” (JANSSEN PHARMACEUTICALS, INC., priority 2009, dated 2018)

Target: T1, human mGluR2 receptor (Homo sapiens, UniProt Q14416)
T1 construct: expressed in transfected cells; host or cells: CHO cells
Experiment: [35S]GTPγS binding assay, positive allosteric modulation (GTPγS-PAM) in presence of EC20 glutamate
Type: biochemical
Conditions: in presence of glutamate at EC20; average pEC50 if more experiments; ‡ means tested once
Protocol: [^35S]GTPγS Binding Assay
The [^35S]GTPγS binding assay is a functional membrane-based assay used to study G-protein coupled receptor (GPCR) function whereby incorporation of a non-hydrolysable form of GTP, [^35S]GTPγS (guanosine 5′-triphosphate, labelled with […] ^35S), is measured. The G-protein α subunit catalyzes the exchange of guanosine 5′-diphosphate (GDP) by guanosine triphosphate (GTP) and on activation of the GPCR by an agonist, [^35S]GTPγS, becomes incorporated and cannot be cleaved to continue the exchange cycle (Harper (1998) Current Protocols in Pharmacology 2.6.1-10, John Wiley & Sons, Inc.). […] Here we describe the use of the [^35S]GTPγS binding assay using membranes from cells transfected with the human mGluR2 receptor and adapted from Schaffhauser et al. ((2003) Molecular Pharmacology 4:798-810) for the detection of the positive allosteric modulation (PAM) properties of the compounds of this invention.
CHO-cells were cultured to pre-confluence and stimulated with 5 mM butyrate for 24 h, prior to washing in PBS, and then collected by scraping in homogenisation buffer (50 mM Tris-HCl buffer, pH 7.4, 4° C.). Cell lysates were homogenized briefly using an ultra-turrax homogenizer. The homogenate was centrifuged at 16,000 RPM (Sorvall RC-5C plus rotor SS-34) for 10 minutes and the supernatant discarded. The pellet was resuspended in 5 mM Tris-HCl, pH 7.4 and centrifuged again (18,000 RPM, 20 min, 4° C.). The final pellet was resuspended in 50 mM Tris-HCl, pH 7.4 and stored at −80° C. in appropriate aliquots before use. Protein concentration was determined by the Bradford method (Bio-Rad, USA) with bovine serum albumin as standard.
Measurement of mGluR2 positive allosteric modulatory activity of test compounds was performed as follows. Test compounds and glutamate were diluted in assay buffer containing 10 mM HEPES acid, 10 mM HEPES salt, pH 7.4, 100 mM NaCl, 3 mM MgCl2 and 10 μM GDP. Human mGlu2 receptor-containing membranes were thawed on ice and diluted in assay buffer supplemented with 14 μg/ml saponin. Membranes were pre-incubated with compound alone or together with a predefined (˜EC20) concentration of glutamate (PAM assay) for 30 min at 30° C. After addition of [^35S]GTPγS (f.c. 0.1 nM) microplates were shaken briefly and further incubated to allow [^35S]GTPγS incorporation on activation (30 minutes, 30° C.). Final assay mixtures contained 7 μg of membrane protein in 10 mM HEPES acid, 10 mM HEPES salt, pH 7.4, 100 mM NaCl, 3 mM MgCl2, 10 µM GDP and 10 μg/ml saponin. Total reaction volume was 200 μl. Reactions were terminated by rapid filtration through Unifilter-96 GF/B filter plates (Packard, Meriden, Conn.) using a 96-well Packard filtermate harvester. Filters were washed 6 times with ice-cold 10 mM NaH2PO4/10 mM Na2HPO4, pH 7.4. Filters were then air-dried, and 40 μl of liquid scintillation cocktail (Microscint-O) was added to each well. Membrane-bound radioactivity was counted in a Microplate Scintillation and Luminescence Counter from Packard.
The concentration-response curves of representative compounds of the present invention-obtained in the presence of EC20 of mGluR2 agonist glutamate to determine positive allosteric modulation (PAM)—were generated using the Lexis software interface (developed at J&J).

T1 sequence (Q14416 19-872): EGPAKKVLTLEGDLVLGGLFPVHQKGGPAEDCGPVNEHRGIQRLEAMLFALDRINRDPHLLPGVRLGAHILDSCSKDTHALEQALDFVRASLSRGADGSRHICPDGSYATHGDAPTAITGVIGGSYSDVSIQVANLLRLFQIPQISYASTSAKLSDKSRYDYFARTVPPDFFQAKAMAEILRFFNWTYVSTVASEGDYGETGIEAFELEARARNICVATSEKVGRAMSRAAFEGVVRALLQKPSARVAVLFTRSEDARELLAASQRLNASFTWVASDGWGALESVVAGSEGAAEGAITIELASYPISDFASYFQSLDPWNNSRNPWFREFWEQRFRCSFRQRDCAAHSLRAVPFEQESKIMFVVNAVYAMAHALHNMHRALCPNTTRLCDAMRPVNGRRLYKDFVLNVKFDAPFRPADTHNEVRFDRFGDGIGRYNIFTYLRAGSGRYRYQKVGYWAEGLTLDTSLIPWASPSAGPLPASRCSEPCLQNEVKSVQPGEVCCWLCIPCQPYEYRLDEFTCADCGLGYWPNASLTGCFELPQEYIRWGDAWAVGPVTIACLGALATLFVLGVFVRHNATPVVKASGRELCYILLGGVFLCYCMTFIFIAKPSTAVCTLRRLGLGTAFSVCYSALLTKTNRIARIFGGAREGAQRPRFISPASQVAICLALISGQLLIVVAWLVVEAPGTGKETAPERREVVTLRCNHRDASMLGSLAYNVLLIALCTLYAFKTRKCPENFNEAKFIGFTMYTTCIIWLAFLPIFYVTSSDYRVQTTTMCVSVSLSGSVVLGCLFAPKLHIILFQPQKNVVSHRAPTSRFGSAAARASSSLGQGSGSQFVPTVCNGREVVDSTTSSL

SMILES | GTPγS - hR2 PAM pEC50
Fc1cccc(C2(C(F)(F)F)CCN(c3ccn4c(CC5CC5)nnc4c3Cl)CC2)c1 [compound 117] | 6.68
FC(F)(F)Cc1nnc2c(C(F)(F)F)c(N3CCC(c4ccccc4)CC3)ccn12 [compound 38] | 7.74
FC(F)(F)C1(OCc2cccnc2)CCN(c2ccn3c(CC4CC4)nnc3c2Cl)CC1 [compound 158] | 6.14
FC(F)(F)c1c(N2CCC(Oc3ccccn3)CC2)ccn2c(CCC3CC3)nnc12 [compound 129] | 6.92
COc1cccc(F)c1C1CCN(c2ccn3c(CC4CC4)nnc3c2Cl)CC1 [compound 55] | 8.22
CCCc1nnc2c(C(F)(F)F)c(N3CCC4(CC3)OC(F)(F)c3ccccc34)ccn12 [compound 142] | 6.55‡
CC1CN(c2ccn3c(CC4CC4)nnc3c2Cl)CCC1c1ccccc1 (centres unmarked) [compound 168] | 7.22
CCc1nnc2c(Cl)c(N3CCC(c4ccccc4)CC3)ccn12 [compound 25] | 6.42
Fc1ccccc1NC1CN(c2ccn3c(CC4CC4)nnc3c2C(F)(F)F)C1 [compound 189] | 6.4
Fc1ccc(NC2CCN(c3ccn4c(CC5CC5)nnc4c3C(F)(F)F)CC2)c(F)c1 [compound 203] | 6.73
N#Cc1c(N2CCC(c3ccccc3)CC2)ccn2c(CN3CCC(C(F)(F)F)CC3)nnc12 [compound 37] | 6.51
Fc1ccc(N2CC3(CCN(c4ccn5c(CC6CC6)nnc5c4Cl)CC3)C2)c(F)c1 [compound 210] | 6.5
CC(C)OCc1nnc2c(Cl)c(N3CCC(c4ccccc4)(C(F)(F)F)CC3)ccn12 [compound 144] | 6.25
CCCc1nnc2c(Cl)c(N3CCC4(CC3)OC(C)(C)c3ccccc34)ccn12 [compound 107] | 7.22
CC(C)(C)c1nnc2c(C#N)c(N3CCC(c4ccccc4)CC3)ccn12 [compound 35] | 5.91
COc1cccc(F)c1N1CCN(c2ccn3c(CC4CC4)nnc3c2C(F)(F)F)CC1 [compound 301] | 7.45‡
FC1(F)CCN(C2CCN(c3ccn4c(CC5CC5)nnc4c3C(F)(F)F)CC2)CC1 [compound 238] | 6.08‡
FC(F)(F)c1c(N2CCC(c3ccccc3Cl)CC2)ccn2c(CC3CC3)nnc12 [compound 287] | 7.87‡
Fc1ccc(N2CCCC3(C2)CN(c2ccn4c(CC5CC5)nnc4c2C(F)(F)F)C3)c(F)c1 [compound 188] | 8‡
CC(C)(C)Cc1nnc2c(C(F)(F)F)c(N3CCC(c4ccccc4)CC3)ccn12 [compound 177] | 7.67
Clc1c(N2CCC(c3ccccc3)C2)ccn2c(CC3CC3)nnc12 (centres unmarked) [compound 173] | 6.32‡
FC1(c2ccccc2)CCN(c2ccn3c(CCC4CC4)nnc3c2Cl)CC1 [compound 140] | 6.55
CCCc1nnc2c(Cl)c(N3CCN(c4ccc(F)cc4F)CC3)ccn12 [compound 95] | 5.93‡
FC(F)(F)c1c(N2CC[C@H](Oc3ccccc3)C2)ccn2c(CC3CC3)nnc12 [compound 152] | 6.78

SMILES | GTPγS - hR2 PAM pEC50
COc1c(F)cccc1C1CCN(c2ccn3c(CC(F)(F)F)nnc3c2C#N)CC1 [compound 27] | 7.51
N#Cc1c(N2CCC(c3ccccc3)CC2)ccn2c(COCc3ccccc3)nnc12 [compound 32] | 7.03
Clc1c(N2CCC(n3ccc4ccccc43)CC2)ccn2c(CC3CC3)nnc12 [compound 259] | 6.67‡
N#Cc1c(N2CCC(c3ccccc3)CC2)ccn2c(CC3CCC3)nnc12 [compound 34] | 7.35
N#Cc1c(N2CCC(F)(c3ccccc3)CC2)ccn2c(CC(F)(F)F)nnc12 [compound 54] | 6.95
CCCc1nnc2c(C(F)(F)F)c(N3CCC4(CC3)OCc3c(F)cccc34)ccn12 [compound 110] | 6.86
CCCc1nnc2c(C#N)c(N3CCC(c4ccccc4)CC3)ccn12 [compound 28] | 6.53
Fc1ccc(N2CCN(c3ccn4c(CC5CC5)nnc4c3C(F)(F)F)CC2)c(F)c1 [compound 196] | 7.06
CCOCc1nnc2c(C(F)(F)F)c(N3CCC(c4ccccc4)CC3)ccn12 [compound 136] | 7.69‡
FC(F)(F)Cc1nnc2c(Cl)c(N3CCC(Oc4ccccn4)CC3)ccn12 [compound 114] | 6.33
Fc1cnc(N2CCN(c3ccn4c(CC5CC5)nnc4c3C(F)(F)F)CC2)c(F)c1 [compound 359] | 7‡
CC(C)OCc1nnc2c(C(F)(F)F)c(N3CCC(Oc4ccccn4)CC3)ccn12 [compound 150] | 6.97‡
O=C1OC2(CCN(c3ccn4c(CC5CC5)nnc4c3Cl)CC2)c2ccccc21 [compound 149] | 6.5‡
Fc1ccc(N2C[C@@H]3CN(c4ccn5c(CC6CC6)nnc5c4C(F)(F)F)C[C@@H]3C2)c(F)c1 [compound 166] | 7.22
N#Cc1c(N2CCN(C3CCC(C(F)(F)F)CC3)CC2)ccn2c(CC(F)(F)F)nnc12 (centres unmarked) [compound 73] | 6.13
FC1(F)CCN(C2CCN(c3ccn4c(CC5CC5)nnc4c3Cl)CC2)CC1 [compound 242] | 5.86
FC(F)(F)C(c1ccccc1)N1CCN(c2ccn3c(CC4CC4)nnc3c2Cl)CC1 (centres unmarked) [compound 163] | 6.97‡
CC(C)OCc1nnc2c(Cl)c(N3CCC(F)(c4ccccc4)CC3)ccn12 [compound 127] | 6.42
CC(C)OCc1nnc2c(C(F)(F)F)c(N3CCC(c4ccccc4)CC3)ccn12 [compound 122] | 7.3
COc1cc(F)ccc1C1CCN(c2ccn3c(CC4CC4)nnc3c2C(F)(F)F)CC1 [compound 277] | 7.72
Fc1ccc(CN2CCCC3(C2)CN(c2ccn4c(CC5CC5)nnc4c2C(F)(F)F)C3)c(F)c1 [compound 232] | 7.64
Fc1cccc2c1COC21CCN(c2ccn3c(CC4CC4)nnc3c2C(F)(F)F)CC1 [compound 109] | 7.29
Cc1cc(C2CCN(c3ccn4c(CC5CC5)nnc4c3C(F)(F)F)CC2)ccn1 [compound 199] | 6.8

Same assay, conditions: in presence of glutamate at EC20; average pEC50 if more experiments; ‡ means tested once; read-out: GTPγS - hR2 PAM pEC50 (converted)

SMILES | EC50
CC(C)Cc1nnc2c(Cl)c(N3CCC(c4ccccc4)CC3)ccn12 [compound 9, 8-Chloro-3-(2-methylpropyl)-7-(4-phenyl-1-piperidinyl)-1,2,4-triazolo[4,3-a]pyridine] | 269 nM
N#Cc1c(N2CCC(c3ccccc3)CC2)ccn2c(C3CCC3)nnc12 [compound 14, 3-Cyclobutyl-7-(4-phenyl-1-piperidinyl)-1,2,4-triazolo[4,3-a]pyridine-8-carbonitrile] | 427 nM
N#Cc1c(N2CCC(c3ccccc3)CC2)ccn2c(CN3CCC(c4ccccc4)CC3)nnc12 [compound 12, 7-(4-phenyl-1-piperidinyl)-3-[(4-phenyl-1-piperidinyl)methyl]-1,2,4triazolo[4,3-a]pyridine-8-carbonitrile] | 46.8 nM
